Results reported in patent publication US7842808B2, “Anti-migraine spirocycles” (Bristol-Myers Squibb Company, priority 2002, dated 2010).

Target: T1, CGRP receptor (SK-N-MC cell membranes) (Homo sapiens, UniProt O60894+Q16602)
T1 construct: endogenous in cells; host or cells: SK-N-MC cells (membrane homogenate)
Assay: CGRP Binding Assay ([125I]-CGRP radioligand binding, SK-N-MC homogenate)
Conditions: displacement of [125I]-CGRP, SK-N-MC homogenate; read-out: CGRP binding IC50

T1 sequence (Q16602 23-461): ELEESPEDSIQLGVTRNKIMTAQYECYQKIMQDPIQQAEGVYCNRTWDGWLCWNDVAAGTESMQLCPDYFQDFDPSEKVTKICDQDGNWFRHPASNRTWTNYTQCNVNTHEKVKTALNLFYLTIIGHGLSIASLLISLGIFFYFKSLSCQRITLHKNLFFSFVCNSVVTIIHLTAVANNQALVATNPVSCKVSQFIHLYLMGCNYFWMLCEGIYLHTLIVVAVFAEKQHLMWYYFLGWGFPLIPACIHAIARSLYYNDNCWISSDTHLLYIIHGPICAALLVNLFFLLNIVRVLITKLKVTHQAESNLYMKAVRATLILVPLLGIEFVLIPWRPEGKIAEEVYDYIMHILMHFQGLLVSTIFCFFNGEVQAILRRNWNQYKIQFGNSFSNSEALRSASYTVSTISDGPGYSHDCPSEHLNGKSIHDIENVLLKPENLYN
T1 sequence (O60894 27-148): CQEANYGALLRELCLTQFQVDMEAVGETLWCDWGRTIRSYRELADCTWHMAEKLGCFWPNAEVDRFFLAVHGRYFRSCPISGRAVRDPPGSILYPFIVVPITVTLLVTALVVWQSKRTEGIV

IC50	Structure (SMILES)
100 to 1000 nM	COC(=O)C(CC(=O)N1CCC2(CC1)OC(=O)Nc1ccccc12)Cc1cc(C)c2[nH]ncc2c1 (racemic) [Example 66, (±)-2-(7-Methyl-1H-indazol-5-ylmethyl)-4-oxo-4-[1′,2′-dihydro-2′-oxospiro-[4H-3′,1-benzoxazine-4,4′-piperidinyl]-butyric acid methyl ester]
100 to 1000 nM	COC(=O)C(CN1Cc2cn[nH]c2C(C)(C)C1)NC(=O)N1CCC(N2Cc3ccccc3NC2=O)CC1 (racemic) [Example 55, (±)-3-(7,7-Dimethyl-1,4,6,7-tetrahydro-pyrazolo[4,3-c]pyridin-5-yl)-2-{[4-(2-oxo-1,4-dihydro-2H-quinazolin-3-yl)-piperidine-1-carbonyl]-amino}-propionic acid methyl ester]
100 to 1000 nM	O=C(Nc1cccc(C(F)(F)F)c1)N[C@@H](CC(=O)N1CCC(N2Cc3ccccc3NC2=O)CC1)C(=O)N1CCC(N2CCCCC2)CC1 [Example 153]
< 10 nM	Cc1cc(CC(NC(=O)N2CCC(N3Cc4ccccc4NC3=O)CC2)C(=O)O[C@H](C)c2ccncc2)cc2cn[nH]c12 (stereo partly drawn) [Example 41e, 3-(7-Methyl-1H-indazol-5-yl)-2-{[4-(2-oxo-1,4-dihydro-2H-quinazolin-3-yl)-piperidine-1-carbonyl]-amino}-propionic acid (R)-1-pyridin-4-yl-ethyl ester]
> 1000 nM	O=C(C[C@H](Nc1ccncn1)C(=O)N1CCC(N2CCCCC2)CC1)N1CCC(N2Cc3ccccc3NC2=O)CC1 [Example 96, (L)-1-[1,4′]Bipiperidinyl-1′-yl-4-[4-(2-oxo-1,4-dihydro-2H-quinazolin-3-yl)-piperidin-1-yl]-2-(pyrimidin-4-ylamino)-butane-1,4-dione]
100 to 1000 nM	CC(C)(C)OC(=O)N[C@@H](CC(=O)N1CCC(N2Cc3ccccc3NC2=O)CC1)C(=O)N1CCC(N2CCCCC2)CC1 [Example 85, (L)-{1-([1,4′]Bipiperidinyl-1′-carbonyl)-3-oxo-3-[4-(2-oxo-1,4-dihydro-2H-quinazolin-3-yl)-piperidin-1-yl]-propyl}-carbamic acid tert-butyl ester]
100 to 1000 nM	COc1ccc(NC(=O)N[C@@H](CC(=O)N2CCC(N3Cc4ccccc4NC3=O)CC2)C(=O)N2CCC(N3CCCCC3)CC2)cc1 [Example 181]
10 to 100 nM	O=C(Nc1ccccc1Cl)N[C@@H](CC(=O)N1CCC(N2Cc3ccccc3NC2=O)CC1)C(=O)N1CCC(N2CCCCC2)CC1 [Example 172]
100 to 1000 nM	O=C(COc1ccc(Cl)cc1)N[C@@H](CC(=O)N1CCC(N2Cc3ccccc3NC2=O)CC1)C(=O)N1CCC(N2CCCCC2)CC1 [Example 112]
100 to 1000 nM	O=C(N[C@@H](CC(=O)N1CCC(N2Cc3ccccc3NC2=O)CC1)C(=O)N1CCC(N2CCCCC2)CC1)c1cc(F)cc(F)c1 [Example 122]
100 to 1000 nM	O=C(N[C@@H](CC(=O)N1CCC(N2Cc3ccccc3NC2=O)CC1)C(=O)N1CCC(N2CCCCC2)CC1)c1ccccc1 [Example 110]
100 to 1000 nM	O=C(N[C@@H](CC(=O)N1CCC(N2Cc3ccccc3NC2=O)CC1)C(=O)N1CCC(N2CCCCC2)CC1)c1ccc(F)c(F)c1 [Example 102]
100 to 1000 nM	O=C(NC(Cc1ccc(=O)[nH]c1)C(=O)N1CCC(N2CCCCC2)CC1)N1CCC(N2Cc3ccccc3NC2=O)CC1 (racemic) [Example 60, (±)-4-(2-Oxo-1,4-dihydro-2H-quinazolin-3-yl)-piperidine-1-carboxylic acid[2-[1,4′]bipiperidinyl-1′-yl-2-oxo-1-(6-oxo-1,6-dihydro-pyridin-3-ylmethyl)-ethyl]-amide]
100 to 1000 nM	O=C(NC(Cc1ccc(OCc2ccccc2)nc1)C(=O)N1CCC(N2CCCCC2)CC1)N1CCC(N2Cc3ccccc3NC2=O)CC1 (racemic) [Example 59, (±)-4-(2-Oxo-1,4-dihydro-2H-quinazolin-3-yl)-piperidine-1-carboxylic acid[1-(6-benzyloxy-pyridin-3-ylmethyl)-2-[1,4′]bipiperidinyl-1′-yl-2-oxo-ethyl]-amide]

Structure (SMILES)	IC50
Cc1ccc(OC(=O)N[C@@H](CC(=O)N2CCC(N3Cc4ccccc4NC3=O)CC2)C(=O)N2CCC(N3CCCCC3)CC2)cc1 [Example 132]	100 to 1000 nM
